assay: Krafft point of the anionic surfactant; assay type: physicochemical; settings: Krafft point at 10 mass% in aqueous solution; unit not given, Krafft points in °C
Procedure: The present invention uses a view that the Krafft point is a melting point of a hydrated solid of a surfactant. That is, the Krafft point is the temperature at which a surfactant precipitates when an aqueous solution thereof is cooled. In some kinds of surfactants, the Krafft point changes depending on the concentration. In the present invention, an anionic surfactant having a Krafft point of 45°C or more at a concentration of 10 mass% in an aqueous solution is used. The Krafft point can be measured using a differential scanning calorimetry.

Kp (Krafft point)	Compound
Sodium stearate (Kp = 79)	CCCCCCCCCCCCCCCCCC(=O)[O-].[Na+] [Sodium stearate]
Sodium laurate (Kp ≈ 38)	CCCCCCCCCCCC(=O)[O-].[Na+] [Sodium laurate]

Compound	Kp (Krafft point)
CCCCCCCCCCCCCCCCCC(=O)N(C)CCS(=O)(=O)[O-].[Na+] [Sodium N-stearoyl-N-methyltaurate]	Sodium N-stearoyl-N-methyltaurate (Kp = 50) (Nikkol SMT, manufactured by Nikko Chemicals Co., Ltd.)
